{
  "source": "patent US4478842A",
  "about": "“N-Substituted-2-pyridylindoles” (Ciba-Geigy Corporation, priority 1982, dated 1984)",
  "key": {"prostacyclin (PGI2)": {"system": "prostacyclin (PGI2)", "experiment": "plasma level of prostacyclin (6-keto-PGF1α) in vivo (ionophore A23187 injected)", "conditions": "rat, oral dose 0.10 mg/kg or higher", "protocol": "(§1) The inhibition of the synthesis and the reduction of plasma levels of thromboxane is determined in vivo on administration to rats in the following manner (as adapted from the procedures described by Tai et al. in Anal. Biochem. 87:343, 1978 and by Salmon in Prostaglandins 15:383, 1978):\n(§2) Rats are dosed with vehicle or test drug and injected intravenously with ionophore A23187 (0.5 mg/kg) two hours later. Blood is collected for analysis 2 minutes after the ionophore injection. A single aliquot of each plasma sample is assayed for thromboxane B2 and another aliquot for 6-keto-PGF1 α, the stable metabolites of thromboxane A2 and prostacyclin (PGI2) respectively, by radioimmunoassay."}, "platelet aggregation": {"system": "platelet aggregation", "experiment": "variously induced platelet aggregation", "description": "(§3) Experimentally, prolongation of bleeding time in the rat is indicative of a beneficial antithrombotic effect."}, "thrombocytopenia": {"system": "thrombocytopenia", "experiment": "variously induced thrombocytopenia", "conditions": "in vivo"}, "bleeding time": {"system": "bleeding time", "experiment": "prolongation of bleeding time in the rat", "format": "in vivo", "conditions": "orally to rats, about 30 mg/kg", "description": "as §3"}, "[1]": {"system": "arachidonic acid induced pulmonary obstruction", "experiment": "protection against sudden death due to arachidonic acid induced pulmonary obstruction", "format": "in vivo", "conditions": "orally to mice, 100 mg/kg"}, "thromboxane B2": {"system": "thromboxane B2", "experiment": "reduction of plasma levels of thromboxane B2 in vivo (ionophore A23187 injected)", "conditions": "rat, oral dose as low as 0.10 mg/kg", "protocol": "as §1, §2"}, "thromboxane synthetase": {"molecular_target": "T1, thromboxane synthetase (Homo sapiens, UniProt P24557)", "T1 construct": "crude microsomal preparation of thromboxane synthetase from lysed human platelets; from tissue; host or cells: human platelets (lysed), crude microsomal preparation", "T1 sequence (P24557 1-533)": "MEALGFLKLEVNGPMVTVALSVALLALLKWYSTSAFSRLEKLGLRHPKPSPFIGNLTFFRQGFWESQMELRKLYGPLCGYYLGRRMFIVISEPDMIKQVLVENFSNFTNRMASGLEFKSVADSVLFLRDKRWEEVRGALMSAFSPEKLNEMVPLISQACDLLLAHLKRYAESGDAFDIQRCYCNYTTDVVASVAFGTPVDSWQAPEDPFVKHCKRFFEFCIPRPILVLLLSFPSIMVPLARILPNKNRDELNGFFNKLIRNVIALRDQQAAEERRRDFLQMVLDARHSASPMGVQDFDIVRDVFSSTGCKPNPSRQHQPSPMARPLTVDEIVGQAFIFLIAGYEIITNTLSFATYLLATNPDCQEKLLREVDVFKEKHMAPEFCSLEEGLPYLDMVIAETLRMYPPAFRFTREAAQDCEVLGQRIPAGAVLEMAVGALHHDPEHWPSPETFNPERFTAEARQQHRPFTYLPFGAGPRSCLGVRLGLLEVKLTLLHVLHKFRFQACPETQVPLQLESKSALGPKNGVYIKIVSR", "experiment": "in vitro inhibition of the thromboxane synthetase enzyme (TxB2/PGF2α+β ratio)", "format": "biochemical", "conditions": "30 minutes incubation", "protocol": "Res. Comm. 74, 1432 (1977); the testing procedure is as follows: ^14 C-Arachidonic acid is incubated with an enzyme consisting of solubilized and partially purified prostaglandin cyclo-oxygenase from sheep seminal vesicles and a crude microsomal preparation of thromboxane synthetase from lysed human platelets. The test compound (dissolved in buffer, or if necessary, in a small amount of ethanol) is added to the incubation medium. […] The radioactive zones are located; those corresponding to Thromboxane B2 (TxB2) and PGF2 α+β are transferred to liquid scintillation vials and counted. The ratio of counts for TxB2 /PGF2 α+β is calculated for each concentration of test compound and IC50 values are determined graphically as the concentration of test compound at which the ratio of TxB2 /PGF2 α+β is reduced to 50% of the control value."}},
  "note": "Counter-ions that a name gives are not always drawn.",
  "data": [
    {"molecule": "Cc1c(-c2cccnc2)n(CCCCCCCC(=O)O)c2ccccc12", "note": "[Example 1, 1-(7-carboxyheptyl)-3-methyl-2-(3-pyridyl)indole]", "values": [
      {"measurement": "plasma level of prostacyclin", "setting": "prostacyclin (PGI2)", "result": "surprising increase"},
      {"measurement": "inhibition of variously induced platelet aggregation", "setting": "platelet aggregation", "result": "inhibits variously induced platelet aggregation"},
      {"measurement": "inhibition of variously induced thrombocytopenia", "setting": "thrombocytopenia", "result": "inhibits variously induced platelet aggregation and thrombocytopenia"},
      {"measurement": "prolongation of bleeding time", "setting": "bleeding time", "result": "prolongs bleeding time"},
      {"measurement": "protection against sudden death", "setting": "[1]", "result": "protects against sudden death"}
    ]},
    {"molecule": "Cc1c(-c2cccnc2)n(CCCCCC(=O)O)c2ccc(Cl)cc12", "note": "[Example 7, 1-(5-carboxypentyl)-5-chloro-3-methyl-2-(3-pyridyl)indole]", "values": [
      {"measurement": "decrease of the plasma concentration of thromboxane B2", "setting": "thromboxane B2", "result": "over 50%"},
      {"measurement": "plasma level of prostacyclin", "setting": "prostacyclin (PGI2)", "result": "surprising increase"}
    ]},
    {"molecule": "Cc1c(-c2cccnc2)n(CCOc2ccc(C(=O)O)cc2)c2ccccc12", "note": "[Example 20, 1-[2-(4-carboxyphenoxy)ethyl]-2-(3-pyridyl)-3-methylindole]", "values": [
      {"measurement": "IC50", "setting": "thromboxane synthetase", "result": 26, "unit": "nM"}
    ]},
    {"molecule": "Cc1c(-c2cccnc2)n(CCSc2ccc(C(=O)O)cc2)c2ccccc12", "note": "[Example 22, 1-[2-(4-carboxyphenylthio)ethyl]-2-(3-pyridyl)-3-methylindole hydrochloride]", "values": [
      {"measurement": "IC50", "setting": "thromboxane synthetase", "result": 58, "unit": "nM"}
    ]}
  ]
}
